Reference: publication PMC9849758, “Chemically diverse activity-based probes with unexpected inhibitory mechanisms targeting trypsin-like serine proteases” (Frontiers in Chemistry, 2023)
Entries after “also recorded” stand apart in the source; their conditions may differ.

Assays:
Assay type in all cases: biochemical
[1] = target: T1, Trypsin-3 (Homo sapiens, UniProt P35030); assay: Kinetic progress curves (kapp, K1, KI*, mechanism); design: purchased R&D; conditions: for Trypsin-3 kapp: apparent second-order rate constant from progress curves; for Trypsin-3 kapp / Ki: mean ± SD; for Trypsin-3 mechanism of inhibition: defined by the progress curves: slow-binding (Rev.) or irreversible (Irrev.)
T1 sequence (P35030 1-304): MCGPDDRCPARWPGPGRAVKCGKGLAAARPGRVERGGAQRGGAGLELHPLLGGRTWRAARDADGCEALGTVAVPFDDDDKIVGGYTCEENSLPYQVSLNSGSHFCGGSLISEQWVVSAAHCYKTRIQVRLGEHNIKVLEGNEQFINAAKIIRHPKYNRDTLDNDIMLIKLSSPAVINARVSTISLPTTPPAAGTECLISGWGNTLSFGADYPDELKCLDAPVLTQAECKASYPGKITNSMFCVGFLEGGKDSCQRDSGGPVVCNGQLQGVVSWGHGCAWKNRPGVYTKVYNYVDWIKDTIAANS
Experimental: (§1) Because the compounds described in this paper were previously described as irreversible inhibitors, the IC50 value is inversely correlated with the second-order rate constant of inactivation. For a simple pseudo-first-order inactivation process, the activity after incubation with inhibitor (vi) varies with the inhibitor concentration (i), as described in the following equation: vi=v0·e^−kit where v0 is the activity in the absence of an inhibitor, k is the second-order rate constant of inactivation, and t is the time. The inactivation rate constant was determined from the time course of inhibition.
(§2) Kinetic assays were performed in the following manner. The inhibitor was mixed with the substrate, and the buffer solution with the enzyme was added at the time zero. The progress curves show the release of pNA or AMC as a function of time. Initially, no inhibitor is bound to the enzyme, and the tangent to the progress curve (dA/dt) is proportional to the free enzyme concentration. The free enzyme concentration decreases over time due to inhibitor binding kinetics, as described above. Progress curves were recorded in pseudo-first-order conditions ([I]0>>[E]0) and with less than 10% conversion of the substrate during the entire time course. In these conditions, dA/dt decreases exponentially with time. The progress curves were fitted with the integrated rate equation with GraFit7 to yield a value for kobs, a pseudo-first-order rate constant. At=Ao+vs∙t+vi−vs∙1−e^−kobs∙t/kobs where At is the absorbance at time t, A0 is the absorbance at time zero, vi is the initial rate and vs is the velocity at the steady-state.
(§3) The apparent second-order rate constant (kapp) was calculated from the slope of the linear part of the plot of kobs vs. the inhibitor concentration ([I]0). In the case of competition between the inhibitor and the substrate, kapp is smaller than the “real” second-order rate constant k discussed above because a certain fraction of the enzyme is present as an enzyme-substrate complex. kapp depends on the substrate concentration used in the experiment, as described by [Lambeir et al. (1996)].
(§4) The apparent equilibrium constants were obtained from the following equations, vi/vo=1/1+I/K1; vS/vo=1/1+I/KI* where vi is the initial rate, vs is the steady-state velocity and vo is the uninhibited initial rate.

[2] = target: T2, Cathepsin G (cathepsin G human neutrophil) (Homo sapiens, UniProt P08311); assay: IC50 determination, spectrophotometric protease assay
T2 construct: Cathepsin G (cathepsin G human neutrophil, Sigma-Aldrich); purchased Sigma-Aldrich; host or cells: human neutrophil
T2 sequence (P08311 21-255): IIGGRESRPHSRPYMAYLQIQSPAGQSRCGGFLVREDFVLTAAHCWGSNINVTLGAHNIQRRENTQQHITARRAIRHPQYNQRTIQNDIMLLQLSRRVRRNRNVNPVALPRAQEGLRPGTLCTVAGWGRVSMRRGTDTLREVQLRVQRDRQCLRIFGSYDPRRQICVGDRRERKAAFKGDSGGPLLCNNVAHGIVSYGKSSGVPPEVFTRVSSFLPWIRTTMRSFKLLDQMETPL
Experimental: (§5) The IC50 values were determined using a spectrophotometric assay. All the experiments were conducted in duplicate. The readout consisted of evaluating the protease-mediated release of the chromophore para-nitroaniline (pNA) or fluorophore 7-amino-4-methyl coumarin (AMC) moieties from the respective substrates. Enzymatic activity was measured for 30 min at 37°C. All compounds were initially screened at three concentrations (10, 1, and .1 μM) to estimate the range of the IC50 value. Those which were able to reduce protease activity by at least 50% at a concentration of 10 μM were submitted to an exact IC50 determination. […] A third independent experiment was performed when the standard deviation of the two independent experiments was higher than […]. IC50 values were obtained by fitting the data with the four-parameter logistics equation using GraphPad Prism 9.
(§6) The conditions for each protease are described as follows, the concentration of substrate used was at the corresponding Km.

[3] = target: T3, TLCK-treated pancreatic bovine chymotrypsin (Bos taurus, UniProt P00766); assay: as above
T3 construct: TLCK-treated pancreatic bovine chymotrypsin (Sigma-Aldrich); purchased Sigma-Aldrich; host or cells: bovine pancreas
Experimental: as §5, §6

[4] = target: T4, uPA (recombinant urokinase plasminogen activator) (Homo sapiens, UniProt P00749); assay: as above
T4 construct: purchased HYPHEN BioMed
Experimental: as §5, §6

[5] = target: T5, Thrombin (recombinant thrombin) (Homo sapiens, UniProt P00734); assay: as above
T5 construct: purchased R&D
Experimental: as §5, §6

[6] = target: T6, Trypsin-3 (recombinant trypsin-3) (Homo sapiens, UniProt P35030); assay: as above
T6 construct: purchased R&D
T6 sequence (P35030 1-304): T1 sequence (P35030 1-304)
Experimental: as §5, §6

[7] = target: T7, β-tryptase (recombinant tryptase β-2) (Homo sapiens, UniProt P20231); assay: as above
T7 construct: purchased EnzoLife Sciences
Experimental: as §5, §6

[8] = target: T8, CatG (Homo sapiens, UniProt P08311); assay: Kinetic progress curves (kapp, mechanism); design: Cathepsin G (cathepsin G human neutrophil, Sigma-Aldrich); purchased Sigma-Aldrich; host or cells: human neutrophil; conditions: for CatG kapp: apparent second-order rate constant from progress curves, mean ± SD; for CatG mechanism of inhibition: defined by the progress curves: slow-binding (Rev.) or irreversible (Irrev.)
T8 sequence (P08311 21-255): T2 sequence (P08311 21-255)
Experimental: as §1, §2, §3, §4

[9] = Trypsin-3 K1, apparent equilibrium constant of the first step of slow-binding
[10] = Trypsin-3 KI*, apparent equilibrium constant of the overall process
[11] = alkyne probes, 15 min preincubation at 37°C, mean ± SD

T7 sequence (P20231 31-275): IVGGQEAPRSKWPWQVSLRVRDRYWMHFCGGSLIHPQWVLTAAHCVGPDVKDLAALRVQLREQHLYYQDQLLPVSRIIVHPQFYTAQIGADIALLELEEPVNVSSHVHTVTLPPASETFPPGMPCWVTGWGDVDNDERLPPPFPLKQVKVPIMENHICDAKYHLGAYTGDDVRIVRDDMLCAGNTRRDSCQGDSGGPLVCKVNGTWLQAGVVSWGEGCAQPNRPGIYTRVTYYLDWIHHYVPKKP

Row | Structure (SMILES) | Trypsin-3 kapp [1] | Trypsin-3 mechanism of inhibition [1] | IC50 [2] | IC50 [3] | IC50 [4] | IC50 [5] | IC50 [6] | IC50 [7] | CatG kapp [8] | CatG mechanism of inhibition [8] | selectivity for trypsin-3 over the other tested proteases ([1]; based on the kapp values) | Ki [1, 9] | Ki [1, 10] | selectivity for trypsin-3 over β-tryptase ([1]; based on the kapp values) | selectivity for trypsin-3 versus thrombin ([1]; based on the kapp values) | selectivity for trypsin-3 versus uPA ([1]; based on the kapp values) | CatG IC50 [2, 11] | uPA IC50 [4, 11]
1 | C#CCCCOC(=O)NC(c1ccc(NC(=N)N)cc1)P(=O)(Oc1ccccc1)Oc1ccccc1.O=C(O)C(F)(F)F (stereo not drawn) [37b, Pent-4-yn-1-yl ((diphenoxyphosphoryl)(4-guanidinophenyl)methyl)carbamate trifluoroacetate salt] | 293 ± 34 M⁻¹ s⁻¹ | Irrev. | 0.64 ± 0.03 µM | > 10 µM | 1.79 ± 0.003 µM | > 10 µM | 0.23 ± 0.01 µM | 0.9 ± 0.1 µM | 582 ± 2 M⁻¹ s⁻¹ | Irrev. |  |  |  |  |  |  |  | 
2 | C#CCCCOC(=O)NC(CCCNC(=N)N)P(=O)(Oc1ccccc1)Oc1ccccc1 (stereo not drawn) [32b] | 18 × 10^2 ± 66 M^−1 s^−1 | Irrev. | 7.57 ± 0.58 µM | > 10 µM | 4.8 ± 0.08 µM | 0.85 ± 0.13 µM | 0.03 ± 0.007 µM | 3.74 ± 0.53 µM |  | * ^d Rev. | at least 30 fold |  |  |  |  |  |  | 
3 | C#CCCCOC(=O)NC(Cc1ccc(NC(=N)N)cc1)P(=O)(Oc1ccccc1)Oc1ccccc1 (stereo not drawn) [34b] | 40 × 10^3 ± 2642 M^−1 s^−1 | reversible slow-binding and Rev. | 0.45 ± 0.02 µM | > 10 µM |  | 8.49 ± 2.25 µM | 0.001 ± 0.0003 µM | 0.63 ± 0.03 µM |  | * ^d Rev. |  | 0.029 ± 0.005 µM | 0.003 ± 0.0003 µM | 55 fold | over 2000 fold | 5 fold |  | 
4 | C#CCCCOC(=O)NC(Cc1ccc(NC(=N)N)cc1)P(=O)(Oc1ccc(NC(C)=O)cc1)Oc1ccc(NC(C)=O)cc1 (stereo not drawn) [35b] |  | * ^d Rev. | 0.06 ± 0.006 µM | > 10 µM | 0.005 ± 0.001 µM | 1.11 ± 0.05 µM | < 0.001 µM | 0.05 ± 0.003 µM | 477 ± 67 M⁻¹ s⁻¹ | Rev. |  | 0.001 ± 0.0001 µM | 0.0001 µM |  |  |  |  | 
5 | C#CCCCOC(=O)NC(C1CCN(C(=N)N)CC1)P(=O)(Oc1ccccc1)Oc1ccccc1 (stereo not drawn) [41b] | 17 × 10^2 ± 142 M^−1 s^−1 | irreversible inhibition; also recorded: Irrev | > 10 µM | > 10 µM | > 10 µM | 0.03 ± 0.001 µM | 0.04 ± 0.002 µM | 8.37 ± 0.44 µM |  |  |  |  |  |  |  |  | no inhibition | no inhibition
